Assays:
[1] = system: patients with walking difficulties, proctoptosia, backaches, limb pains; test: Tablets of Example 4 administered once a day to aged patients with muscle disorders; assay type: in vivo, human; conditions: single regular dose of drugs admixed with one of scymnol, isoflavone, and cholic acid
Excerpt: In Western medicine, it has been understood that proctoptosia and leg, lumbus and arm aches are attributable only to hematogenous disorders and resultant inflammation at local sites. […] Thus, it can be understood that these disorders are attributed to insufficient communication of brain commands to local sites and therefore the hematogenous disorders and onset of inflammation are problems caused by abnormal motions of muscles due to incomplete communication of brain commands.

[2] = system: adrenaline secretion; test: Animal experiments using mice: secretomotory action on adrenaline (blood glucose levels); assay type: in vivo
Excerpt: No studies have been conducted on the efficacy of curcumin, zingerone, or shogaol on the stimulation of adrenaline secretion.

## C[C@H](CCC(=O)O)[C@H]1CC[C@H]2[C@@H]3[C@H](O)C[C@@H]4C[C@H](O)CC[C@]4(C)[C@H]3C[C@H](O)[C@]12C [cholic acid]
[1]
  effect on proctoptosia and leg, lumbus and arm aches: not significantly ameliorated

## COc1cc(/C=C/C(=O)/C=C(O)/C=C/c2ccc(O)c(OC)c2)ccc1O [curcumin]
[2]
  blood glucose levels (secretomotory action on adrenaline): remarkably elevated

## C[C@H](CC[C@@H](O)C(CO)CO)C1CCC2C3C(C[C@H](O)[C@@]21C)[C@@]1(C)CC[C@@H](O)CC1C[C@H]3O (some centres unmarked) [scymnol, Scymnol]
[1]
  effect on proctoptosia and leg, lumbus and arm aches: not significantly ameliorated

## CCCCC/C=C/C(=O)CCc1ccc(O)c(OC)c1 [shogaol, (6)-shogaol]
[2]
  blood glucose levels (secretomotory action on adrenaline): remarkably elevated

## COc1cc(CCC(C)=O)ccc1O [zingerone]
[2]
  blood glucose levels (secretomotory action on adrenaline): remarkably elevated

From patent US7799763B2, “Muscle-strengthening drugs and anti-inflammatory drugs” (Daicho Kikaku Incorporated Company, priority 2002, dated 2010)
